# Results: ChEMBL document CHEMBL3507680, “University of Dundee, Gates Library screen for HepG2 cell viability”
# Assay: Human HepG2 cell viability assay in 384 well format
# Assay type: toxicity, cell-based
# Design: dose 125 nL, time 70.5 hour; concentration not given beside the values
# Conditions: HepG2 cells, read-out: Inhibition
row,SMILES,cytotoxicity at 70.5 h [%]
1,NC(=O)Cn1cnc2nc3n(c2c1=O)CCC3,16.5
2,CN(C)C(=O)C1CN(Cc2ccccn2)CCN(S(C)(=O)=O)C1 (centres undefined),-3.97
3,COc1ncccc1CNC(=O)Nc1cccnc1N1CCCC1,5.6
4,Cc1ccc(C(=O)N2CCCC(c3[nH]ncc3S(C)(=O)=O)C2)s1 (centres undefined),10.6
5,CN1CCN(Cc2ccccc2Cl)CC12CCC(=O)N(CC1CC1)CC2 (centres undefined),0.313
6,CCCS(=O)(=O)c1ccc(N2CCC(Cc3ccccc3)CC2)nn1,-2.73
7,Cn1cnc(S(=O)(=O)NCCCN2CCOCC2)c1Cl,-14.4
8,COc1ccc(NC(=O)N(C)Cc2ccc(Br)o2)cn1,-6.19
9,CN(C)c1ncc(NC(=O)c2cccc(Nc3cnn(C)c3)c2)cn1,2.52
10,O=C(c1ccco1)N1CCO[C@@H]2CNCC[C@@H]2C1,32.1
11,Cc1cc(OC(F)F)c(C(=O)N2CC[C@H](O)C2)s1,-6.12
12,CN(C)C(=O)Cn1c(C2CC2)c(CN2CCSCC2)c2cccnc21,1.03
13,CCC(NCc1nccn1C)c1nc(C(F)(F)F)cs1 (centres undefined),-0.765
14,CCn1nccc1C(=O)N1CCCCC1CCc1ccc(O)cc1 (centres undefined),11
15,c1cnn(CCN2CCOC(Cn3cncn3)C2)c1 (centres undefined),6.43
16,O=C(NCCc1ccccc1)N1CC[C@@H]2CNS(=O)(=O)[C@@H]2CC1,0.679
17,Cc1cc(NC(=O)N2CCN(C)CC2C)n(Cc2ccccc2)n1 (centres undefined),-9.75
18,CCNC(=O)c1ccnc(CC2COc3c(cccc3OC)C2)c1 (centres undefined),-38.4
19,Fc1cnc(N2CCOCC3(CCCN(c4nncs4)C3)C2)nc1 (centres undefined),-19.9
20,Cc1csc(N2CCCN(C(=O)CCNc3ncccn3)CC2)n1,-0.695
21,Cc1cccc(N2N=C(C(=O)NC(C)Cc3ccco3)CCC2=O)c1 (centres undefined),-13.7
22,CC(C)NC(=O)N1CCCn2cnc(CN3CCCC3=O)c2C1,27.9

row,SMILES,cytotoxicity at 70.5 h [%]
1,Cc1ccc(S(=O)(=O)NCCNC(=O)c2ccoc2)cc1C,-7.77
2,CCCS(=O)(=O)N1C[C@H]2C[C@H](C(=O)N3CCCC3)[C@@H](C1)O2,-3.05
3,CO[C@H]1C[C@@H](O)C12CCN(C(=O)NCc1ccco1)CC2,17.8
4,c1cc(-c2ccc3nc(C4CCN(CC5CC5)CC4)nn3c2)cs1,-8.2
5,CC(NC(=O)CSCC#N)c1ccc(Cl)cc1 (centres undefined),-4.42
6,CC(C)c1nnc2n1CCN(Cc1cccc3c1OCCO3)C2,30
7,O=C(CN1CCc2cncnc2C1)N1CCc2sccc2C1,-11
8,CN1C[C@H](O)[C@]2(CCN(C(=O)COc3ccccc3)C2)S1(=O)=O,-5.4
9,CC(CCc1ccccc1)N1CCC(C(=O)Nc2cnccn2)CC1 (centres undefined),-19.2
10,CCOc1ccc(S(=O)(=O)N(C)Cc2cnn(CC)c2)cc1,-2.15
11,CC(C)CC(=O)N1CC(=O)c2sc(Nc3ccc(C#N)cc3)nc2C1,0.0296
12,CSc1ccc(C(C(=O)O)N2CCC(C(=O)N3CCCC3)CC2)cc1 (centres undefined),-4.74
13,O=C1CCC(C(=O)Nc2cnn(-c3ccccc3Br)c2)N1 (centres undefined),-15.6
14,O=C(C1CCC1)N1C[C@@H]2CCN(c3cccnc3)C[C@@H]2C1,30
15,Cn1ccnc1C(=O)N[C@@H]1CN(CC2CCOCC2)[C@@H]2CCCO[C@@H]21,-2.65
16,CSCc1ccc(N(C)CC2CCCN(C(C)C)C2)nc1 (centres undefined),-2.8
17,CCS(=O)(=O)N1CC[C@@H]2[C@H](COCC3CC3)CN(C)C(=O)[C@@H]2CC1,-5.95
18,Cc1cnn(CC2CCCN2C(=O)c2cnc3n[nH]c(C)c3c2)c1 (centres undefined),15.1
19,O=C(O)Cn1ccc(=O)c2ccccc21,-14.9
20,O=C(c1c[nH]c(=O)[nH]c1=O)N1CCCC(c2cnccn2)C1 (centres undefined),-2.78
21,CCCS(=O)(=O)N1CCN(c2ccnc(N3CCCCC3)n2)CC1,-8.56
22,CC(=O)N1CCC(NC(=O)CN2CCCc3c(C)ccc(F)c32)CC1,-9.21
